Read-outs that look alike come from different tables or passages of the source.
Columns and labels:
Assay in all cases: cells
[1] = test system: AsPC-1; design: ATPlite luminescence viability of PDAC cell lines, 11-dose single-agent curves, 4-parameter fit; conditions: Homo sapiens, ASPC1, 72 h, read-out: EC50 [nM]
Procedure, shortened: (§1)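 Drug-combination screening used cells plated at 1000 to 5000 per well one day before treatment. Final DMSO was 0.2%. Each plate held untreated negative-control wells and 5 µM staurosporine positive-control wells.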

[2] = test system: BxPC-3; design: ATPlite luminescence viability of PDAC cell lines, 11-dose single-agent curves, 4-parameter fit; conditions: Homo sapiens, BXPC-3, 72 h, read-out: EC50 [nM]
Procedure, shortened: as §1

[3] = test system: Colo-357; design: ATPlite luminescence viability of PDAC cell lines, 11-dose single-agent curves, 4-parameter fit; conditions: Homo sapiens, COLO357, 72 h, read-out: EC50 [nM]
Procedure, shortened: as §1

[4] = test system: Dan-G; design: ATPlite luminescence viability of PDAC cell lines, 11-dose single-agent curves, 4-parameter fit; conditions: 72 h, read-out: EC50 [nM]
Procedure, shortened: as §1

[5] = test system: FAMPAC; design: ATPlite luminescence viability of PDAC cell lines, 11-dose single-agent curves, 4-parameter fit; conditions: 72 h, read-out: EC50 [nM]
Procedure, shortened: as §1

[6] = test system: HPDE; design: ATPlite luminescence viability of PDAC cell lines, 11-dose single-agent curves, 4-parameter fit; conditions: HPDE, 72 h, read-out: EC50 [nM]
Procedure, shortened: as §1

[7] = test system: HuP-T4; design: ATPlite luminescence viability of PDAC cell lines, 11-dose single-agent curves, 4-parameter fit; conditions: Homo sapiens, HuP-T4, 72 h, read-out: EC50 [nM]
Procedure, shortened: as §1

[8] = test system: MiaPaCa-2; design: ATPlite luminescence viability of PDAC cell lines, 11-dose single-agent curves, 4-parameter fit; conditions: Homo sapiens, MIA PaCa-2, 72 h, read-out: EC50 [nM]
Procedure, shortened: as §1

[9] = test system: PANC-1; design: ATPlite luminescence viability of PDAC cell lines, 11-dose single-agent curves, 4-parameter fit; conditions: Homo sapiens, PANC-1, 72 h, read-out: EC50 [nM]
Procedure, shortened: as §1

[10] = test system: PSN-1; design: ATPlite luminescence viability of PDAC cell lines, 11-dose single-agent curves, 4-parameter fit; conditions: Homo sapiens, PSN1, 72 h, read-out: EC50 [nM]
Procedure, shortened: as §1

[11] = test system: PaTu-8988-T; design: ATPlite luminescence viability of PDAC cell lines, 11-dose single-agent curves, 4-parameter fit; conditions: Homo sapiens, PaTu 8988t, 72 h, read-out: EC50 [nM]
Procedure, shortened: as §1

[12] = test system: Suit2-07; design: ATPlite luminescence viability of PDAC cell lines, 11-dose single-agent curves, 4-parameter fit; conditions: 72 h, read-out: EC50 [nM]
Procedure, shortened: as §1

[13] = test system: Capan-1; design: Viability of PDAC cell lines, ATPlite luminescence, 11-dose single-agent curve fit; conditions: Homo sapiens, CAPAN-1, 72 h, read-out: EC50 [nM]
Procedure, shortened: (§2)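 screening used cells plated at 1000 to 5000 per well one day before treatment. Final DMSO was 0.2%. Each plate held untreated negative-control wells and 5 µM staurosporine positive-control wells.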

[14] = test system: HPDE; design: Viability of PDAC cell lines, ATPlite luminescence, 11-dose single-agent curve fit; conditions: HPDE, 72 h, read-out: EC50 [nM]
Procedure, shortened: as §2

[15] = test system: Capan-1; design: ATPlite luminescence viability of PDAC cell lines, 11-dose single-agent curves, 4-parameter fit; conditions: Homo sapiens, CAPAN-1, 72 h, read-out: EC50 [nM]
Procedure, shortened: as §1

[16] = test system: HuP-T4; design: Viability of PDAC cell lines, ATPlite luminescence, 11-dose single-agent curve fit; conditions: Homo sapiens, HuP-T4, 72 h, read-out: EC50 [nM]
Procedure, shortened: as §2

[17] = test system: AsPC-1; design: Viability of PDAC cell lines, ATPlite luminescence, 11-dose single-agent curve fit; conditions: Homo sapiens, ASPC1, 72 h, read-out: EC50 [nM]
Procedure, shortened: as §2

[18] = test system: PANC-1; design: Viability of PDAC cell lines, ATPlite luminescence, 11-dose single-agent curve fit; conditions: Homo sapiens, PANC-1, 72 h, read-out: EC50 [nM]
Procedure, shortened: as §2

[19] = test system: FAMPAC; design: Viability of PDAC cell lines, ATPlite luminescence, 11-dose single-agent curve fit; conditions: 72 h, read-out: EC50 [nM]
Procedure, shortened: as §2

[20] = test system: PSN-1; design: Viability of PDAC cell lines, ATPlite luminescence, 11-dose single-agent curve fit; conditions: Homo sapiens, PSN1, 72 h, read-out: EC50 [nM]
Procedure, shortened: as §2

[21] = test system: Colo-357; design: Viability of PDAC cell lines, ATPlite luminescence, 11-dose single-agent curve fit; conditions: Homo sapiens, COLO357, 72 h, read-out: EC50 [nM]
Procedure, shortened: as §2

[22] = test system: Dan-G; design: Viability of PDAC cell lines, ATPlite luminescence, 11-dose single-agent curve fit; conditions: 72 h, read-out: EC50 [nM]
Procedure, shortened: as §2

[23] = test system: MiaPaCa-2; design: Viability of PDAC cell lines, ATPlite luminescence, 11-dose single-agent curve fit; conditions: Homo sapiens, MIA PaCa-2, 72 h, read-out: EC50 [nM]
Procedure, shortened: as §2

[24] = test system: Suit2-07; design: Viability of PDAC cell lines, ATPlite luminescence, 11-dose single-agent curve fit; conditions: 72 h, read-out: EC50 [nM]
Procedure, shortened: as §2

Compound: CC1(COc2ccc3c(c2)ncn3-c2ccc3cccc(N4CCC(N)CC4)c3n2)COC1 [Crenolanib]
- EC50 [1]: > 10000 nM
- EC50 [2]: 3600 nM
- EC50 [3]: 5080 nM
- EC50 [4]: 5940 nM
- EC50 [5]: 3340 nM
- EC50 [6]: 3500 nM
- EC50 [7]: > 10000 nM
- EC50 [8]: 2190 nM
- EC50 [9]: 8300 nM
- EC50 [10]: 5250 nM
- EC50 [11]: 5450 nM
- EC50 [12]: 4860 nM
- EC50 [13]: 3710 nM

Compound: CO[C@@H]1[C@H](N(C)C(=O)c2ccccc2)C[C@H]2O[C@]1(C)n1c3ccccc3c3c4c(c5c6ccccc6n2c5c31)C(=O)NC4 [Midostaurin]
- EC50 [7]: 692 nM
- EC50 [11]: 385 nM
- EC50 [14]: 221 nM

Compound: COc1cc2c(Oc3ccc4[nH]c(C)cc4c3F)ccnc2cc1OCC1(N)CC1 [Anlotinib]
- EC50 [1]: 3160 nM
- EC50 [2]: 1520 nM
- EC50 [15]: 2440 nM
- EC50 [3]: 2350 nM
- EC50 [4]: 1850 nM
- EC50 [5]: 1580 nM
- EC50 [6]: 6100 nM
- EC50 [8]: 1720 nM
- EC50 [9]: 1960 nM
- EC50 [10]: 1920 nM
- EC50 [11]: 1520 nM
- EC50 [12]: 1270 nM
- EC50 [16]: > 10000 nM

Compound: Cc1nc(Nc2ncc(C(=O)Nc3c(C)cccc3Cl)s2)cc(N2CCN(CCO)CC2)n1 [Dasatinib]
- EC50 [2]: 78.9 nM
- EC50 [15]: 704 nM
- EC50 [3]: 4740 nM
- EC50 [4]: 8640 nM
- EC50 [5]: 48.5 nM
- EC50 [6]: 580 nM
- EC50 [7]: 139 nM
- EC50 [8]: 4.67 nM
- EC50 [10]: 37.1 nM
- EC50 [11]: 16.6 nM
- EC50 [12]: 2600 nM
- EC50 [17]: > 10000 nM
- EC50 [18]: 446 nM

Compound: Nc1cc(C(F)(F)F)c(-c2cc(N3CCOCC3)nc(N3CCOCC3)n2)cn1 [Buparlisib]
- EC50 [1]: 1030 nM
- EC50 [15]: 663 nM
- EC50 [3]: 403 nM
- EC50 [4]: 493 nM
- EC50 [5]: 752 nM
- EC50 [6]: 1130 nM
- EC50 [7]: 1300 nM
- EC50 [8]: 572 nM
- EC50 [9]: 703 nM
- EC50 [10]: 638 nM
- EC50 [11]: 724 nM
- EC50 [12]: 479 nM

Compound: COc1cc2c(Oc3ccc4[nH]c(C)cc4c3F)ncnc2cc1OCCCN1CCCC1 [Cediranib]
- EC50 [1]: 7780 nM
- EC50 [2]: 7970 nM
- EC50 [3]: 10300 nM
- EC50 [4]: 6330 nM
- EC50 [5]: > 10000 nM
- EC50 [7]: 8450 nM
- EC50 [8]: 10100 nM
- EC50 [10]: > 10000 nM
- EC50 [11]: 6380 nM
- EC50 [12]: > 10000 nM
- EC50 [13]: 8290 nM
- EC50 [14]: 4910 nM
- EC50 [18]: 7310 nM

Compound: CC1(C)CC=C(c2nc(C3CC(C)(C)OC(C)(C)C3)ccc2NC(=O)c2nc(C#N)c[nH]2)CC1 [Edicotinib]
- EC50 [1]: 2570 nM
- EC50 [2]: 1960 nM
- EC50 [15]: 3970 nM
- EC50 [3]: 4490 nM
- EC50 [4]: 3250 nM
- EC50 [5]: 2850 nM
- EC50 [6]: 2070 nM
- EC50 [8]: 3040 nM
- EC50 [9]: 3070 nM
- EC50 [10]: 2160 nM
- EC50 [11]: 2070 nM
- EC50 [12]: 2380 nM
- EC50 [16]: 1370 nM

Compound: Cc1nc(-c2cn3c(n2)-c2ccc(-c4cnn(C(C)(C)C(N)=O)c4)cc2OCC3)n(C(C)C)n1 [Taselisib]
- EC50 [1]: 873 nM
- EC50 [2]: 245 nM
- EC50 [15]: 2920 nM
- EC50 [3]: 27.1 nM
- EC50 [4]: 37.1 nM
- EC50 [6]: 826 nM
- EC50 [8]: 446 nM
- EC50 [9]: 1570 nM
- EC50 [11]: 459 nM
- EC50 [12]: 141 nM
- EC50 [19]: > 10000 nM
- EC50 [16]: 19.8 nM
- EC50 [20]: 7930 nM

Compound: CN(C)C[C@@H]1CCn2cc(c3ccccc32)C2=C(C(=O)NC2=O)c2cn(c3ccccc23)CCO1 [Ruboxistaurin]
- EC50 [2]: > 10000 nM
- EC50 [5]: > 10000 nM
- EC50 [6]: > 10000 nM
- EC50 [7]: > 10000 nM
- EC50 [10]: > 10000 nM
- EC50 [11]: > 10000 nM
- EC50 [17]: 8110 nM
- EC50 [13]: 8680 nM
- EC50 [21]: 5.38 nM
- EC50 [22]: 5180 nM
- EC50 [23]: 6440 nM
- EC50 [18]: 1620 nM
- EC50 [24]: 3050 nM

Compound: CC(C)NC(=O)[C@H]1CC[C@@H](n2/c(=N/C(=O)c3ccc(F)cc3)[nH]c3ccc(CN4CCC(C(C)(C)O)CC4)cc32)CC1 [Belizatinib]
- EC50 [1]: 496 nM
- EC50 [2]: 1420 nM
- EC50 [3]: 7390 nM
- EC50 [4]: 4630 nM
- EC50 [6]: 1270 nM
- EC50 [7]: > 10000 nM
- EC50 [8]: 308 nM
- EC50 [9]: 1860 nM
- EC50 [10]: 1340 nM
- EC50 [11]: 580 nM
- EC50 [12]: 599 nM
- EC50 [13]: 8120 nM
- EC50 [19]: 3220 nM

Compound: COc1cc(Nc2ncc(F)c(Nc3ccc4c(n3)N(COP(=O)(O)O)C(=O)C(C)(C)O4)n2)cc(OC)c1OC [Fostamatinib]
- EC50 [2]: 4790 nM
- EC50 [15]: 2290 nM
- EC50 [3]: 1410 nM
- EC50 [4]: 1010 nM
- EC50 [5]: > 10000 nM
- EC50 [6]: > 10000 nM
- EC50 [7]: 3770 nM
- EC50 [8]: 946 nM
- EC50 [10]: 2020 nM
- EC50 [11]: 1190 nM
- EC50 [12]: 1360 nM
- EC50 [17]: > 10000 nM
- EC50 [18]: 658 nM

From article PMC11876601 (Molecular Systems Biology, 2025)
